Measured values as given in patent US7462600B2, “Macrolides” (Pfizer Inc, priority 2004, dated 2008).
≈ marks a conversion by molar mass, not a printed value. Read-outs that look alike come from different tables or passages of the source.

Experiments:
Assay type in all cases: cell-based
[1] = system: Streptococcus pyogenes 1079; test: MIC, microtiter broth dilution (NCCLS M100-S14), S. pyogenes 1079 (ermB)
Summary of the method: (§1)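 Panel strains, including macrolide-resistant isolates and their susceptible parents where available, are exposed to serial compound dilutions in microtiter trays. Growth inhibition is scored as MIC under NCCLS M100-S14 standards.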

[2] = system: Haemophilus influenzae 1218; test: MIC, microtiter broth dilution (NCCLS M100-S14), H. influenzae 1218 (susceptible)
Summary of the method: as §1

[3] = system: Streptococcus pneumoniae 1016; test: MIC, microtiter broth dilution (NCCLS M100-S14), S. pneumoniae 1016 (susceptible)
Summary of the method: as §1

[4] = system: Streptococcus pneumoniae 1175; details: microtiter broth dilution
Summary of the method: as §1

[5] = system: Streptococcus pneumoniae 1095; details: microtiter broth dilution
Summary of the method: as §1

[6] = H. influenzae 1218 (susceptible)
[7] = S. pneumoniae 1016 (susceptible)

CCC1OC(=O)C(C)C(=O)C(C)C(OC2OC(C)CC(N(C)C)C2O)C(C)(OC)CC(C)C(=O)C(C)C2N(C3CN(S(=O)(=O)c4ccc(-n5ccnc5)c(C#N)c4)C3)C(=O)OC12C (centres unmarked) [Example 3.64]
MIC S. pyogenes 1079 ([1]; Streptococcus pyogenes 1079): 32 µg/mL (≈ 35.6 µM)
MIC H. influenzae 1218 ([2]; Haemophilus influenzae 1218): 0.5 µg/mL (≈ 0.556 µM)
MIC S. pneumo. 1016 ([3]; Streptococcus pneumoniae 1016): <0.06 µg/mL
MIC S. pneumo. 1175 ([4]; Streptococcus pneumoniae 1175): <0.06 µg/mL
MIC S. pneumo. 1095 ([5]; Streptococcus pneumoniae 1095): <0.06 µg/mL

CCC1OC(=O)C(C)C(=O)C(C)C(OC2OC(C)CC(N(C)C)C2O)C(C)(OC)CC(C)C(=O)C(C)C2N(C3CN(S(=O)(=O)c4c(C)noc4C)C3)C(=O)OC12C (centres unmarked) [Example 3.32, 3,5-dimethylisoxazole-4-sulfonyl]
MIC S. pyogenes 1079 ([1]; Streptococcus pyogenes 1079): 32 µg/mL (≈ 38.7 µM)
MIC H. influenzae 1218 ([2]; Haemophilus influenzae 1218): 2 µg/mL (≈ 2.42 µM)
MIC S. pneumo. 1016 ([3]; Streptococcus pneumoniae 1016): <0.06 µg/mL
MIC S. pneumo. 1175 ([4]; Streptococcus pneumoniae 1175): 0.12 µg/mL (≈ 0.145 µM)
MIC S. pneumo. 1095 ([5]; Streptococcus pneumoniae 1095): 0.5 µg/mL (≈ 0.605 µM)

CCC1OC(=O)C(C)C(=O)C(C)C(OC2OC(C)CC(N(C)C)C2O)C(C)(OC)CC(C)C(=O)C(C)C2N(C3CN(C(=O)Nc4cc(-c5ccc(F)cc5)n[nH]4)C3)C(=O)OC12C (centres unmarked) [Example 2.07]
MIC S. pyogenes 1079 ([1]; Streptococcus pyogenes 1079): 16 µg/mL (≈ 18.4 µM)
MIC H. influenzae 1218 ([2]; Haemophilus influenzae 1218): 16 µg/mL (≈ 18.4 µM)
MIC S. pneumo. 1016 ([3]; Streptococcus pneumoniae 1016): <0.06 µg/mL
MIC S. pneumo. 1175 ([4]; Streptococcus pneumoniae 1175): 32 µg/mL (≈ 36.7 µM)
MIC S. pneumo. 1095 ([5]; Streptococcus pneumoniae 1095): 4 µg/mL (≈ 4.59 µM)

CCC1OC(=O)C(C)C(=O)C(C)C(OC2OC(C)CC(N(C)C)C2O)C(C)(OC)CC(C)C(=O)C(C)C2N(C3CN(S(=O)(=O)c4ccc(-c5csnn5)cc4)C3)C(=O)OC12C (centres unmarked) [Example 3.45, 3-descladinosyl-11,12-dideoxy-6-O-methyl-3-oxo-12,11-(oxycarbonyl-(1-(4-(1,2,3-thiadiazol-4-yl)benzenesulfonyl)-azetidin-3-yl)-imino)-erythromycin A]
MIC S. pyogenes 1079 ([1]; Streptococcus pyogenes 1079): 0.12 µg/mL (≈ 0.135 µM)
MIC H. influenzae 1218 ([2]; Haemophilus influenzae 1218): 0.25 µg/mL (≈ 0.28 µM)
MIC S. pneumo. 1016 ([3]; Streptococcus pneumoniae 1016): <0.06 µg/mL
MIC S. pneumo. 1175 ([4]; Streptococcus pneumoniae 1175): <0.06 µg/mL
MIC S. pneumo. 1095 ([5]; Streptococcus pneumoniae 1095): <0.06 µg/mL

CCC1OC(=O)C(C)C(=O)C(C)C(OC2OC(C)CC(N(C)C)C2O)C(C)(OC)CC(C)C(=O)C(C)C2N(CC3CCCN3C(=O)c3nc4cncnc4[nH]3)C(=O)OC12C (centres unmarked) [10.26]
MIC S. pyogenes 1079 ([1]; S. pyogenes 1079 (ermB)): >64.00 µg/mL
MIC H. influenzae 1218 [2, 6]: 2 µg/mL (≈ 2.38 µM)
MIC S. pneumo. 1016 [3, 7]: <0.06 µg/mL
MIC S. pneumo. 1175 ([4]; S. pneumoniae 1175 (mefA)): 1 µg/mL (≈ 1.19 µM)
MIC S. pneumo. 1095 ([5]; S. pneumoniae 1095 (ermB)): <0.06 µg/mL

CCC1OC(=O)C(C)C(=O)C(C)C(OC2OC(C)CC(N(C)C)C2O)C(C)(OC)CC(C)C(=O)C(C)C2N(CC3C4CN(C(=O)c5cccnc5)CC43)C(=O)OC12C (centres unmarked) [16.02]
MIC S. pyogenes 1079 ([1]; S. pyogenes 1079 (ermB)): >100.00 µg/mL
MIC H. influenzae 1218 [2, 6]: 0.78 µg/mL (≈ 0.959 µM)
MIC S. pneumo. 1016 [3, 7]: 0.02 µg/mL (≈ 0.0246 µM)
MIC S. pneumo. 1175 ([4]; S. pneumoniae 1175 (mefA)): 0.78 µg/mL (≈ 0.959 µM)
MIC S. pneumo. 1095 ([5]; S. pneumoniae 1095 (ermB)): 3.12 µg/mL (≈ 3.84 µM)

CCC1OC(=O)C(C)C(=O)C(C)C(OC2OC(C)CC(N(C)C)C2O)C(C)(OC)CC(C)C(=O)C(C)C2N(CC3CCCN3C(=O)c3ccnc4[nH]cnc34)C(=O)OC12C (centres unmarked) [10.50]
MIC S. pyogenes 1079 ([1]; S. pyogenes 1079 (ermB)): >64.00 µg/mL
MIC H. influenzae 1218 [2, 6]: 8 µg/mL (≈ 9.51 µM)
MIC S. pneumo. 1016 [3, 7]: <0.06 µg/mL
MIC S. pneumo. 1175 ([4]; S. pneumoniae 1175 (mefA)): 2 µg/mL (≈ 2.38 µM)
MIC S. pneumo. 1095 ([5]; S. pneumoniae 1095 (ermB)): 0.5 µg/mL (≈ 0.595 µM)

CC[C@H]1OC(=O)[C@H](C)C(=O)[C@H](C)[C@@H](O[C@@H]2O[C@H](C)C[C@H](N(C)C)[C@H]2O)[C@](C)(OC)C[C@@H](C)C(=O)[C@H](C)[C@H]2N(CC3(O)CN(C(=O)c4cccc5cccnc45)C3)C(=O)O[C@]12C [7.20]
MIC S. pyogenes 1079 ([1]; S. pyogenes 1079 (ermB)): >64.00 µg/mL
MIC H. influenzae 1218 [2, 6]: 0.5 µg/mL (≈ 0.586 µM)
MIC S. pneumo. 1016 [3, 7]: <0.06 µg/mL
MIC S. pneumo. 1175 ([4]; S. pneumoniae 1175 (mefA)): 1 µg/mL (≈ 1.17 µM)
MIC S. pneumo. 1095 ([5]; S. pneumoniae 1095 (ermB)): 2 µg/mL (≈ 2.34 µM)

CCC1OC(=O)C(C)C(=O)C(C)C(OC2OC(C)CC(N(C)C)C2O)C(C)(OC)CC(C)C(=O)C(C)C2N(CC3CN(Cc4cnc5ccccc5c4)C3)C(=O)OC12C (centres unmarked) [4.10]
MIC S. pyogenes 1079 ([1]; Streptococcus pyogenes 1079): 16 µg/mL (≈ 19.4 µM)
MIC H. influenzae 1218 ([2]; Haemophilus influenzae 1218): <0.06 µg/mL
MIC S. pneumo. 1016 ([3]; Streptococcus pneumoniae 1016): <0.06 µg/mL
MIC S. pneumo. 1175 ([4]; Streptococcus pneumoniae 1175): <0.06 µg/mL
MIC S. pneumo. 1095 ([5]; Streptococcus pneumoniae 1095): 1 µg/mL (≈ 1.22 µM)

CCC1OC(=O)C(C)C(=O)C(C)C(OC2OC(C)CC(N(C)C)C2O)C(C)(OC)CC(C)C(=O)C(C)C2N(C3CN(S(=O)(=O)c4cccc(-c5cc(C)no5)c4)C3)C(=O)OC12C (centres unmarked) [Example 3.40, 3-descladinosyl-11,12-dideoxy-6-O-methyl-3-oxo-12,11-(oxycarbonyl-1(-(3-(3-methylisoxazol-5-yl)benzenesulfonyl)-azetidin-3-yl)-imino)-erythromycin A]
MIC S. pyogenes 1079 ([1]; Streptococcus pyogenes 1079): 4 µg/mL (≈ 4.5 µM)
MIC H. influenzae 1218 ([2]; Haemophilus influenzae 1218): 2 µg/mL (≈ 2.25 µM)
MIC S. pneumo. 1016 ([3]; Streptococcus pneumoniae 1016): <0.06 µg/mL
MIC S. pneumo. 1175 ([4]; Streptococcus pneumoniae 1175): <0.06 µg/mL
MIC S. pneumo. 1095 ([5]; Streptococcus pneumoniae 1095): <0.06 µg/mL

CCC1OC(=O)C(C)C(=O)C(C)C(OC2OC(C)CC(N(C)C)C2O)C(C)(OC)CC(C)C(=O)C(C)C2N(C3CN(Cc4cccc(C#N)c4)C3)C(=O)OC12C (centres unmarked) [Example 1.15, 3-cyanobenzyl]
MIC S. pyogenes 1079 ([1]; Streptococcus pyogenes 1079): >64.00 µg/mL
MIC H. influenzae 1218 ([2]; Haemophilus influenzae 1218): 0.25 µg/mL (≈ 0.319 µM)
MIC S. pneumo. 1016 ([3]; Streptococcus pneumoniae 1016): <0.06 µg/mL
MIC S. pneumo. 1175 ([4]; Streptococcus pneumoniae 1175): 0.25 µg/mL (≈ 0.319 µM)
MIC S. pneumo. 1095 ([5]; Streptococcus pneumoniae 1095): <0.06 µg/mL

CC[C@H]1OC(=O)[C@H](C)[C@@H](OC(=O)N2CCCC2)[C@H](C)[C@@H](O[C@@H]2O[C@H](C)C[C@H](N(C)C)[C@H]2O)[C@](C)(OC)C[C@@H](C)C(=O)[C@H](C)[C@H]2N(CC3CN(C(=O)c4ccnc5ccccc45)C3)C(=O)O[C@]12C [Example 5.01, 2-R^2: quinoline-4-carboxyl; R^#: pyrrolidin-1-yl]
MIC S. pyogenes 1079 ([1]; Streptococcus pyogenes 1079): 64 µg/mL (≈ 68.4 µM)
MIC H. influenzae 1218 ([2]; Haemophilus influenzae 1218): 2 µg/mL (≈ 2.14 µM)
MIC S. pneumo. 1016 ([3]; Streptococcus pneumoniae 1016): <0.06 µg/mL
MIC S. pneumo. 1175 ([4]; Streptococcus pneumoniae 1175): <0.06 µg/mL
MIC S. pneumo. 1095 ([5]; Streptococcus pneumoniae 1095): 0.5 µg/mL (≈ 0.534 µM)

CCC1OC(=O)C(C)C(=O)C(C)C(OC2OC(C)CC(N(C)C)C2O)C(C)(OC)CC(C)C(=O)C(C)C2N(C3CN(S(=O)(=O)c4cncc(-n5cccn5)c4)C3)C(=O)OC12C (centres unmarked) [Example 3.80, 3-descladinosyl-11,12-dideoxy-6-O-methyl-3-oxo-12,11-(oxycarbonyl-(1-(5-(1H-pyrazol-1-yl)pyridine-3-sulfonyl)-azetidin-3-yl)-imino)erythromycin A]
MIC S. pyogenes 1079 ([1]; Streptococcus pyogenes 1079): 4 µg/mL (≈ 4.57 µM)
MIC H. influenzae 1218 ([2]; Haemophilus influenzae 1218): >64.00 µg/mL
MIC S. pneumo. 1016 ([3]; Streptococcus pneumoniae 1016): <0.06 µg/mL
MIC S. pneumo. 1175 ([4]; Streptococcus pneumoniae 1175): <0.06 µg/mL
MIC S. pneumo. 1095 ([5]; Streptococcus pneumoniae 1095): <0.06 µg/mL

CCC1OC(=O)C(C)C(=O)C(C)C(OC2OC(C)CC(N(C)C)C2O)C(C)(OC)CC(C)C(=O)C(C)C2N(CC3CCCN3Cc3cccc4cnccc34)C(=O)OC12C (centres unmarked) [10.03]
MIC S. pyogenes 1079 ([1]; S. pyogenes 1079 (ermB)): 64 µg/mL (≈ 76.5 µM)
MIC H. influenzae 1218 [2, 6]: 8 µg/mL (≈ 9.56 µM)
MIC S. pneumo. 1016 [3, 7]: <0.06 µg/mL
MIC S. pneumo. 1175 ([4]; S. pneumoniae 1175 (mefA)): 0.25 µg/mL (≈ 0.299 µM)
MIC S. pneumo. 1095 ([5]; S. pneumoniae 1095 (ermB)): 0.25 µg/mL (≈ 0.299 µM)

CCC1OC(=O)C(C)C(=O)C(C)C(OC2OC(C)CC(N(C)C)C2O)C(C)(OC)CC(C)C(=O)C(C)C2N(C3CN(Cc4ccnc(-c5nc(C)no5)c4)C3)C(=O)OC12C (centres unmarked) [Example 1.46, (2-[3-methyl-(1,2,4)oxadiazol-5-yl]pyridin-4-yl)methyl]
MIC S. pyogenes 1079 ([1]; Streptococcus pyogenes 1079): >64.00 µg/mL
MIC H. influenzae 1218 ([2]; Haemophilus influenzae 1218): 8 µg/mL (≈ 9.51 µM)
MIC S. pneumo. 1016 ([3]; Streptococcus pneumoniae 1016): <0.06 µg/mL
MIC S. pneumo. 1175 ([4]; Streptococcus pneumoniae 1175): 0.25 µg/mL (≈ 0.297 µM)
MIC S. pneumo. 1095 ([5]; Streptococcus pneumoniae 1095): <0.06 µg/mL

CCC1OC(=O)C(C)C(=O)C(C)C(OC2OC(C)CC(N(C)C)C2O)C(C)(OC)CC(C)C(=O)C(C)C2N(C3CN(Cc4ccccn4)C3)C(=O)OC12C (centres unmarked) [Example 1.02, (pyridin-2-yl)methyl]
MIC S. pyogenes 1079 ([1]; Streptococcus pyogenes 1079): >64.00 µg/mL
MIC H. influenzae 1218 ([2]; Haemophilus influenzae 1218): 0.25 µg/mL (≈ 0.329 µM)
MIC S. pneumo. 1016 ([3]; Streptococcus pneumoniae 1016): <0.06 µg/mL
MIC S. pneumo. 1175 ([4]; Streptococcus pneumoniae 1175): 0.12 µg/mL (≈ 0.158 µM)
MIC S. pneumo. 1095 ([5]; Streptococcus pneumoniae 1095): 0.12 µg/mL (≈ 0.158 µM)
